Results from patent publication US20040242591A1, “Oxazolidinone derivatives as pontential antimicrobials” (priority 2001, published 2004).

What was measured:
S.aureus ATCC 25923 = assay: MIC by agar incorporation method, S.aureus 25923; type: cell-based, Staphylococus aureus; design: unit not given here; settings: Mueller Hinton agar, 10^4 CFU/spot, 18 hours
MRSA 15187 = assay: MIC by agar incorporation method, MRSA 15187; type: cell-based, Methicillin Resistant Staphylococcus aureus; design: unit not given here; settings: Mueller Hinton agar, 10^4 CFU/spot, 24 hours
Description: 2) MRSA 15187—Methicillin Resistant Staphylococcus aureus

MRSA 562 = assay: MIC by agar incorporation method, MRSA 562; type: cell-based, Methicillin Resistant Staphylococcus aureus; design: unit not given here; settings: Mueller Hinton agar, 10^4 CFU/spot, 24 hours
MRSA 33 = assay: MIC by agar incorporation method, MRSA 33; type: cell-based, Methicillin Resistant Staphylococcus aureus; design: unit not given here; settings: Mueller Hinton agar, 10^4 CFU/spot, 24 hours
Ent. faecalis ATCC 29212 = assay: MIC by agar incorporation method, E.faecalis 29212; type: cell-based, Enterococcus faecalis; design: unit not given here; settings: Mueller Hinton agar, 10^4 CFU/spot, 18 hours
Description: 3) Ent. faecalis ATCC 29212—Enterococcus faecalis ATCC 29212

VRE 6A = assay: MIC by agar incorporation method, VRE 6A; type: cell-based, Enterococcus faecium; design: unit not given here; settings: Mueller Hinton agar, 10^4 CFU/spot, 18 hours
Description: 4) Ent. faecium […]—Enterococcus faecium 6A Van®, Cipro®

Strep.pyog. ATCC 19615 = assay: MIC by agar incorporation method, S.pyogenes 19615; type: cell-based, Streptococcus pyogenes; design: unit not given here; settings: Mueller Hinton agar, 10^4 CFU/spot, 18 hours
Description: 6) Strep.pyog. ATCC 19615—Streptococcus pyogenes

Strep. pne. ATCC 6303 = assay: MIC by agar incorporation method, S. pneum 6303; type: cell-based, Streptococcus pneumoniae; settings: Mueller Hinton agar, 10^4 CFU/spot, 18 hours
Description: 5) Strep. pne. ATCC 6303—Streptococcus pneumoniae ATCC 6303

S. pneum AB 34 = assay: MIC by agar incorporation method, S. pneum AB 34; type: cell-based, Streptococcus pneumoniae; design: unit not given here; settings: Mueller Hinton agar, 10^4 CFU/spot, 18 hours

Structure (SMILES)	In Vitro (MIC) S.aureus 25923 (S.aureus ATCC 25923)	In Vitro (MIC) MRSA 15187 (MRSA 15187)	In Vitro (MIC) MRSA 562 (MRSA 562)	In Vitro (MIC) MRSA 33 (MRSA 33)	In Vitro (MIC) E.faecalis 29212 (Ent. faecalis ATCC 29212)	In Vitro (MIC) VRE 6A (VRE 6A)	In Vitro (MIC) S.pyogenes 19615 (Strep.pyog. ATCC 19615)	In Vitro (MIC) S. pneum 6303 (Strep. pne. ATCC 6303)	In Vitro (MIC) S. pneum AB 34 (S. pneum AB 34)
CC(=O)NC[C@H]1CN(c2ccc(N3CCN(C(=O)c4cc([N+](=O)[O-])[nH]n4)CC3)c(F)c2)C(=O)O1 [Compound No. 31]	>8	>8	>8	>8	4	4	1	1 µg/mL	1
CC(=O)NC[C@H]1CN(c2ccc(N3CCN(Cc4cc(Br)c([N+](=O)[O-])o4)CC3)c(F)c2)C(=O)O1 [Compound No. 25, (S)-N-[[3-[3-Fluoro-4[N-1-[4-{2-Furyl-4-bromo-(nitro)methyl}]piperazinyl]-phenyl]-2-oxo-5-oxazolidinyl]methyl]acetamide]	2	1	2	2	2	2	0.5	2 µg/mL	2
CC(=O)NC[C@H]1CN(c2ccc(N3CCN(Cc4ccc([N+](=O)[O-])[nH]4)CC3)c(F)c2)C(=O)O1 [Compound No. 13, (S)-N-[[3-[3-Fluoro-4-[N-1-[4-{2-pyrrole-(5-nitro)methyl}]piperazinyl]phenyl]-2-oxo-5-oxazolidinyl]methyl]acetamide]	4	2	4	4	4	4	1	4 µg/mL	4
CC(=O)NC[C@H]1CN(c2ccc(N3CCC(NCc4ccc([N+](=O)[O-])o4)CC3)c(F)c2)C(=O)O1 [Compound No. 86, (S)-N-[[3-[3-Fluoro-4-[4-{N-2-furyl-(5-nitro)methyl}-aminopiperidine-1-yl]phenyl]-2-oxo-5-oxazolidinyl]methyl]acetamide]	1	1	1	1	0.5	0.5	<0.25	2 µg/mL	2
CC(=O)NC[C@H]1CN(c2ccc(N3CCN(Cc4cc(C#N)c([N+](=O)[O-])s4)CC3)c(F)c2)C(=O)O1 [Compound No. 6]	2	2	2	2	4	8	1	1 µg/mL	1
CC(=O)NC[C@H]1CN(c2ccc(N3CCC(N(C)C(=O)c4ccc([N+](=O)[O-])o4)C(C)C3)c(F)c2)C(=O)O1 (stereo partly drawn) [Compound No. 74, (S)-N-[[3-[3-Fluoro-4-[[3-methyl-4-{N-methyl-2-furoyl-(5-nitro)}]-aminopiperidine-1-y]phenyl]-2-oxo-5-oxazolidinyl]methyl]acetamide]	<0.5	<0.5	<0.5	1	1	1	8	8 µg/mL	8
CC(=O)NC[C@H]1CN(c2ccc(N3CCN(C(=O)c4ccc(N)s4)CC3)c(F)c2)C(=O)O1 [Compound No. 34, (S)-N-[[3-[3-Fluoro-4-[N-1-[4-{2-thiophenoyl-(5-amino)}]piperazinyl]phenyl]-2-oxo-5-oxazolidinyl]methyl]acetamide]	8	8	4	8	4	4	1	4 µg/mL	4
O=C(CF)NC[C@H]1CN(c2ccc(N3CCC(Cc4ccc([N+](=O)[O-])o4)CC3)c(F)c2)C(=O)O1 [Compound No. 42, (S)-N-[[3-[3-Fluoro-4-[N-1-[4-{2-furyl(5-nitro)methyl}]piperinyl]phenyl]-2-oxo-5-oxazolidinyl]methyl]-fluoroacetamide]	4	2	2	4	4	4	0.5	1 µg/mL	2
CC(=O)NC[C@H]1CN(c2ccc(N3CCCC(=O)C3)c(F)c2)C(=O)O1 [Compound No. 96, (S)-N-[[3-{3-Fluoro-4-(3-oxo-piperidin-1-yl)-phenyl}-2-oxo-5-oxazolidinyl]methyl]acetamide]	16	16	8	16	8	8	4	4 µg/mL	4
CCN(Cc1ccc([N+](=O)[O-])s1)C1CCN(c2ccc(N3C[C@H](CNC(C)=O)OC3=O)cc2F)CC1 [Compound No. 83, (S)-N-[[3-[3-Fluoro-4-[4-{N-ethyl-N-2-thiophenyl-(5-nitro)methyl}-aminopiperidine-1-yl]phenyl]-2-oxo-5-oxazolidinyl]methyl]acetamide]	4	4	4	4	4	4	8	8 µg/mL	8
CC(=O)NC[C@H]1CN(c2ccc(N3CCN(C(=O)c4ccc(NC(C)=O)s4)CC3)c(F)c2)C(=O)O1 [Compound No. 29, (S)-N-[[3-[3-Fluoro-1-[N-1-[4-{2-thiophenoyl-(5-acetamido)}]piperazinyl]phenyl]-2-oxo-5-oxazolidinyl]methyl]acetamide]	8	4	4	4	4	4	0.5	0.5 µg/mL	1
CC(=O)NC[C@H]1CN(c2ccc(N3CCN(Cc4ccoc4[N+](=O)[O-])CC3)c(F)c2)C(=O)O1 [Compound No. 18, (S)-N-[[3-[3-Fluoro-4-[N-1[4-{3-furyl(2-nitro)methyl}]piperazinyl]phenyl]-2-oxo-5-oxazolidinyl]methyl]acetamide]	8	4	4	4	4	4	1	1 µg/mL	2
CC(Cl)C(=O)NC[C@H]1CN(c2ccc(N3CCN(Cc4cc(Br)c([N+](=O)[O-])s4)CC3)c(F)c2)C(=O)O1 (stereo partly drawn) [Compound No. 51]	8	8	8	8	8	8	16	16 µg/mL	16
CC(=O)NC[C@H]1CN(c2ccc(N3CCN(C(=O)c4ccc([N+](=O)[O-])s4)CC3C)c(F)c2)C(=O)O1 (stereo partly drawn) [Compound No. 60, (S)-N-[[3-[3-Fluoro-4-[N-1-[2-methyl-4-{2-thiophenoyl-(5-nitro)}]-piperazinyl]phenyl]-2-oxo-5-oxazolidinyl]methyl]acetamide]	0.25	<0.125	<0.125	<0.125	1	1	0.5	4 µg/mL	4
CC(=O)NC[C@H]1CN(c2ccc(N3CCN(Cc4cc([N+](=O)[O-])cs4)CC3)c(F)c2)C(=O)O1 [Compound No. 14, (S)-N-[[3-[3-Fluoro-4-[N-1-[4-{2-thiophen-(4-nitro-)methyl-}]piperazinyl]phenyl]-2-oxo-5-oxazolidinyl]methyl]acetamide]	0.25	0.25	0.25	0.25	4	2	0.5	2 µg/mL	1
